IC50 data for one compound are collected here from ChEMBL document CHEMBL3638768, “(aza)indole derivative and use thereof for medical purposes” (2015).

In the test the target is Xanthine dehydrogenase/oxidase (Bos taurus, UniProt P80457). The test is described as follows: Inhibition Assay: Test compounds were dissolved in DMSO (Wako) at 40 mM concentration and then diluted to intended concentrations with phosphate-buffered saline (PBS). Xanthine oxidase (from bovine milk, Sigma) was prepared with phosphate-buffered saline (PBS) at 0.02 units/mL, and then the solution was added to 96 well plates at 50 μL/well. In addition, test compounds diluted with PBS were added at 50 μL/well. Xanthine (Wako) at 200 μM prepared with PBS was added at 100 μL/well, and the reaction was conducted for 10 minutes at room temperature. Absorbance at 290 nm was measured using a microplate reader SpectraMax Plus 384 (Molecular device). The absorbance under a condition without xanthine is 0%, and control without test compounds is 100%.
Chain of Xanthine dehydrogenase/oxidase (P80457 whole entry): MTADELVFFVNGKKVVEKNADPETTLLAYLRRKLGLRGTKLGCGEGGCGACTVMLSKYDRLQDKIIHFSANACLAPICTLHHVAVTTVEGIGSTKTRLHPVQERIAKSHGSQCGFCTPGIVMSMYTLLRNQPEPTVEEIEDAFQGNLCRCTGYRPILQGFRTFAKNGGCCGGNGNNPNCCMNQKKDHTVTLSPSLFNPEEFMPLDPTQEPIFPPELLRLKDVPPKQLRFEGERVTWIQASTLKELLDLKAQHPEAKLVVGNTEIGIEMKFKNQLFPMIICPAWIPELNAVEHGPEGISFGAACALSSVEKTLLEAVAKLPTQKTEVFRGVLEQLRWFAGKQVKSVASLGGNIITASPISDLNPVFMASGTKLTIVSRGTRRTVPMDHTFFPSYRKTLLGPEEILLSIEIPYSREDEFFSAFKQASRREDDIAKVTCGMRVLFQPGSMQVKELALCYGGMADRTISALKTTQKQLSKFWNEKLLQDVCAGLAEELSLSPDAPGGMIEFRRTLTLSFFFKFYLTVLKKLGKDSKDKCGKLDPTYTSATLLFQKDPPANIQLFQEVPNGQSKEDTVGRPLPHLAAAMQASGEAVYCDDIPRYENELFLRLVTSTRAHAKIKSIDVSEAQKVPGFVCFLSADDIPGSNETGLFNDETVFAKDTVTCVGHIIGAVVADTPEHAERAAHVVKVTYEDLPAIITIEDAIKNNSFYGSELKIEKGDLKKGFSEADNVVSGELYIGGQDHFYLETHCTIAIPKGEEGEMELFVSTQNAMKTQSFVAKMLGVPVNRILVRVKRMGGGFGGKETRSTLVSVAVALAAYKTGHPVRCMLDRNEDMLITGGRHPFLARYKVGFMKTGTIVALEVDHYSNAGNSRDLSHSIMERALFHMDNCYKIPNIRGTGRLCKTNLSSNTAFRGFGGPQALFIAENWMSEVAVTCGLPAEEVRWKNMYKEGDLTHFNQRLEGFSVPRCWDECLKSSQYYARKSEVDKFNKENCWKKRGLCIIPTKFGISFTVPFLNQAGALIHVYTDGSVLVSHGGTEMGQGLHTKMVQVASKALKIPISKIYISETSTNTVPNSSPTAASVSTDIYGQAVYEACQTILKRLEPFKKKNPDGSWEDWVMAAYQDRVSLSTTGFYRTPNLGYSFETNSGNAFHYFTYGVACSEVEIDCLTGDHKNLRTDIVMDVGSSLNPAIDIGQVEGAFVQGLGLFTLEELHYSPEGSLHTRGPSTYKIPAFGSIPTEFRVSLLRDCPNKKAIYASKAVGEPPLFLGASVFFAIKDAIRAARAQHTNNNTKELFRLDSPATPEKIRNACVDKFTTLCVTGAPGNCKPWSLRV

By IC50 is commonly meant the concentration that inhibits the measured activity by half. Turning to `N#Cc1cn(-c2ccc(C(=O)O)cn2)c2ccccc12`, the IC50 came to 72.9 nM.
